This note sets out measurements from PMC2959035, “Comparative biochemical analysis of recombinant reverse transcriptase enzymes of HIV-1 subtype B and subtype C” (Retrovirology, 2010).

Read-outs that look alike come from different tables or passages of the source.

What all share (test): RNA-dependent DNA polymerase assay, [3H]-dTTP incorporation
Common to all, as to type: biochemical

Assay [1] addresses T1, B RT-1 (HIV-1 subtype B RT, NL4-3) (Human immunodeficiency virus type 1 (NEW YORK-5 ISOLATE), UniProt P12497).
T1 construct: gene gag-pol; p66/p51 heterodimer cut from the Pol (Gag-Pol) polyprotein; plasmid pbRT6H-PROT with co-expressed HIV-1 protease; 6-His tag; E. coli M15; Ni-NTA, DEAE- and SP-Sepharose; with p51 RT of Gag-Pol polyprotein
The text has this: RNA-dependent DNA polymerase assay, [3H]-dTTP incorporation on B RT-1 (HIV-1 subtype B RT, NL4-3)

Assay [2] addresses T2, C RT-2 (HIV-1 subtype C RT, isolate M01) (HIV-1 M:C_92BR025, UniProt O12158).
T2 construct: gene gag-pol; p66/p51 heterodimer cut from the Pol (Gag-Pol) polyprotein; His-tagged, E. coli; with p51 RT of Gag-Pol polyprotein
The note with it: HIV-1 PBS RNA/dPR template/primer 30 nM, dNTPs 5 μM each, 6 mM MgCl2, 60 mM KCl, pH 7.8, 37°C, 30 min, read-out: IC50 (μM)^a / C RT-2 ^e. From the text: RNA-dependent DNA polymerase assay, [3H]-dTTP incorporation on C RT-2 (HIV-1 subtype C RT, isolate M01)

Assay [3] addresses T3, B RT-2 (HIV-1 subtype B RT, HXB2) (HIV-1 M:B_HXB2R, UniProt P04585).
T3 construct: gene gag-pol; p66/p51 heterodimer cut from the Pol (Gag-Pol) polyprotein; plasmid pRT6H-PROT with co-expressed HIV-1 protease; 6-His tag; E. coli M15; Ni-NTA, DEAE- and SP-Sepharose; with p51 RT of Gag-Pol polyprotein
The text has this: RNA-dependent DNA polymerase assay, [3H]-dTTP incorporation on B RT-2 (HIV-1 subtype B RT, HXB2)

Setting [4] is: nucleotide analogue, competitive at active site.
The mark [5] stands for this setting: NNRTI, non-competitive allosteric.
Setting [6] is: read-out: IC50 (μM)^a / B RT-2^c.
Setting [7] is: read-out: IC50 (μM)^a / B RT-1^b.

Consider `Nc1ccn([C@@H]2CS[C@H](COP(=O)(O)OP(=O)(O)OP(=O)(O)O)O2)c(=O)n1` [3TC-TP], for which the IC50 in assay [1] stood at 2.7 ± 0.3 µM; in assay [2] (setting [4]) it was 4.1 ± 0.4 µM.

In the case of `O=C1Nc2ccc(Cl)cc2[C@@](C#CC2CC2)(C(F)(F)F)O1` [EFV], in assay [2] (setting [5]), the IC50 turned out to be 0.18 ± 0.02 µM.

Consider `Cc1cc(C#N)cc(C)c1Oc1nc(Nc2ccc(C#N)cc2)nc(N)c1Br` [ETR], for which the IC50 in assay [3] (setting [6]) was determined as 0.16 ± 0.02 µM; in assay [1] (setting [7]) it was 0.17 ± 0.03 µM; in assay [2] (setting [5]), 0.19 ± 0.03 µM.

Consider `Cc1ccnc2c1NC(=O)c1cccnc1N2C1CC1` [NVP], for which the IC50 in assay [2] (setting [5]) was 4.3 ± 0.3 µM.

With `C[C@H](Cn1cnc2c(N)ncnc21)OCP(=O)(O)OP(=O)(O)OP(=O)(O)O` [TFV-DP], the IC50 in assay [3] (setting [6]) was 2.1 ± 0.3 µM; in assay [1] (setting [7]), 2.5 ± 0.3 µM; in assay [2] (setting [4]), 2.9 ± 0.4 µM.

For the compound `Cc1cn([C@H]2C[C@H](N=[N+]=[N-])[C@@H](CO[P@](=O)(O)O[P@](=O)(O)OP(=O)(O)O)O2)c(=O)[nH]c1=O` [ZDV-TP], the IC50 in assay [3] worked out at 2.9 ± 0.4 µM; in assay [2] (150 μM sodium pyrophosphate included, nucleotide analogue, competitive at active site) it was 3.8 ± 0.5 µM.
